Molecules are shown by their SMILES. Entries after “also recorded” stand apart in the source; their conditions may differ.

The values below come from patent US5204343A, “5H-benzodiazepin derivative” (Egis Gyogyszergyar, priority 1990, dated 1993).

Data set [1] concerns mice. As to the kind of experiment: Behaviour test on mice (method of Irwin). Format: in vivo. The source says: The effects of the compound of formula (I) and the reference compound (girisopam) were examined by the method of Irwin [Psychopharmacol. 13, 222 (1968)].
The test system of data set [2] is mice. As to the kind of experiment: Narcosis potentiating effect on mice (hexobarbital-Na). Type of data set: in vivo. The settings on record: for Prolongation of narcosis time: hexobarbital-Na 50 mg/kg i.v. How it is done:
The prolongation of the narcosis time was related to the sleeping time of the control group treated with a 50 mg/kg i.v. dose of hexobarbital-Na. The test compound was administered […].

Data set [3] relates to mice. Briefly: Antiaggressive effect on mice ("fighting behaviour" test of Tedeschi et al.). Type of data set: in vivo. The settings on record: Mus musculus, confidence limit in separate column. From the text:
The antiaggressive effect was examined by the method of Tedeschi et al. (the so-called "fighting behaviour" test) [J. Pharm. Exp. Ther. 25, 28 (1959)].

The subject of a further data set is rats. Briefly: Anxiolytic effect on rats ("lick-conflict" test of Vogel). Format: in vivo. As to conditions: for Numbers of shocks tolerated: 50 mg/kg i.p., pretreatment 30 minutes, vehicle 5.7 ± 0.6 (formula (I) series), 5.1 ± 0.9 (girisopam series); for number of tolerated shocks, result in words: same dose (50 mg/kg i.p.). How it is done: The anxiolytic effect was investigated according to the so-called "lick-conflict" test of Vogel [Psychopharmacol. 21, 1 (1971)]. Time of pretreatment: 30 minutes.

The next data set can be described thus: Acute toxicity, mouse. Also noted: species or system mouse (male, CFLP strain). As to conditions: in vivo, 14 days observation. How it is done:
(§1) The experiments were carried out on male mice belonging to the CFLP strain (body weight: 20-22 g) and on male rats belonging to the CFY strain. […] The LD50 values were determined with the aid of the method of Lichtfield and Wilcoxon [J. Pharmacol. Exp. Ther. 96, 99 (1949)]. The compounds were suspended in 2 to 5% Tween 80. The animals were treated in volumes of 0.1 ml/10 g (mice) and 0.5 ml/100 g (rats).

The nature of another data set: Acute toxicity, rat. Also noted: species or system rat (male, CFY strain). As to conditions: in vivo, ip, 14 days observation. How it is done: as §1
Data set [4] is described as follows: Acute toxicity, overall statement. As to conditions: vs girisopam. Format: in vivo. How it is done: as §1
Data set [5] can be described thus: Anxiolytic, antiaggressive and antidepressant effects, overall statement. Format: in vivo. As to conditions: vs girisopam.
Data set [6] is described as follows: Muscle relaxant and anticonvulsive effects. As to conditions: in vivo.
Data set [7] is described as follows: Pharmacological experiments, overall (spectrum, potency, therapeutical index). Format: in vivo. The settings on record: vs girisopam.
The conditions of data set [8]: vs Grandaxin (tofisopam); cited from earlier work.

For `COc1cc2c(cc1OC)C(c1cccc(Cl)c1)=NN=C(CO)C2` [Compound of formula (I), 1-(3-chlorophenyl)-4-hydroxymethyl-7,8-dimethoxy-5H-2,3-benzodiazepine], the “spontaneous motor activity (SMA) after 60 minutes” value in the data set with mice [1] (100 mg/kg i.p.) and with mice [1] (200 mg/kg p.o.) was “SMA.dwnarw” in each case. In addition, the “spontaneous motor activity (SMA) after 120 minutes” value in the data set on mice [1] (100 mg/kg i.p.) and in the data set with mice [1] (200 mg/kg p.o.) was “SMA.dwnarw” each time. The “spontaneous motor activity (SMA) after 180 minutes” value in the data set on mice [1] (100 mg/kg i.p.) and with mice [1] (200 mg/kg p.o.) was “SMA.dwnarw” in each case. Moreover, in the data set with mice [1] (mice, vs girisopam), the “decrease of spontaneous motor activity, compared with reference compound” value is listed as “decreases the spontaneous motor activity on mice to the same degree as the reference compound”. Moreover, the “Prolongation of narcosis time” value amounted to 145% in the data set with mice [2] (12.5 mg/kg p.o.), 232% in the data set with mice [2] (25 mg/kg p.o.) and 444% in the data set with mice [2] (50 mg/kg p.o.). In addition, in the data set on mice [2] (p.o. doses 25 mg/kg and 50 mg/kg, vs girisopam), the “narcosis potentiating activity compared with reference compound” value was “practically as significant as that of the reference compound (girisopam) or even superior”. The molecule also yielded an ED50 in the data set on mice [3] of 13.8 mg/kg. The “Numbers of shocks tolerated” value in the data set with rats is 13.8 ± 3.7. Further, the “number of tolerated shocks, result in words” value in the data set with rats is “significant increase on the number of tolerated shocks”. Also, the 50% lethal dose (LD50) at 336 h in “Acute toxicity, mouse” (ip) was 1310 mg/kg; in the data set “Acute toxicity, mouse” (po), more than 2000 mg/kg; in “Acute toxicity, rat”, more than 1500 mg/kg. Also, the “acute toxicity compared with reference compound” value in data set [4] is on record as “considerably more favourable on both kinds of animals than that of the reference compound; also recorded: their acute toxicity is superior”. For the same molecule, the “anxiolytic, antiaggressive and antidepressant effects” value in data set [5] was “as strong anxiolytic, antiaggressive and antidepressant effects as girisopam”. Further, in [6], the “muscle relaxant and anticonvulsive effects” value was “do not show muscle relaxant and anticonvulsive effects”. Also, in data set [7], the “spectrum of activity and potency” value was “as favourable as those of the reference compound (girisopam)”. For the same molecule, the “therapeutical index compared with reference compound” value in [7] is on record as “more favourable than the reference compound”.
In the case of `COc1cc2c(cc1OC)C(c1cccc(Cl)c1)=NN=C(C)C2` [Girisopam, 1-(3-chlorophenyl)-4-methyl-7,8-dimethoxy-5H-2,3-benzodiazepine, reference compound], the “spontaneous motor activity (SMA) after 60 minutes” value in the data set with mice [1] (100 mg/kg i.p.) and in the data set with mice [1] (200 mg/kg p.o.) was “SMA.dwnarw” throughout. In addition, the “spontaneous motor activity (SMA) after 120 minutes” value in the data set with mice [1] (100 mg/kg i.p.) and in the data set with mice [1] (200 mg/kg p.o.) was “SMA.dwnarw” throughout. The “spontaneous motor activity (SMA) after 180 minutes” value in the data set on mice [1] (100 mg/kg i.p.) and in the data set with mice [1] (200 mg/kg p.o.) was “SMA.dwnarw” in each case. The results for the “Prolongation of narcosis time” value in the data set on mice [2] (25 mg/kg p.o.) and in the data set on mice [2] (50 mg/kg p.o.) were 305% and 392%, respectively. The ED50 with mice [3] is 16 mg/kg. Further, the “Numbers of shocks tolerated” value in the data set on rats was determined as 19.0 ± 2.3. Further, the “number of tolerated shocks, result in words” value in the data set with rats was “significant increase on the number of tolerated shocks”. The LD50 at 336 h in the data set “Acute toxicity, mouse” (ip) was determined as 330 mg/kg; in the data set “Acute toxicity, mouse” (po) it was 1250 mg/kg; in the data set “Acute toxicity, rat”, 670 mg/kg. In [8], the “effectiveness compared with Grandaxin” value was “five times more effective than the latter”.
